Where “and” joins values, the source holds several entries; their conditions need not be identical. Identical values can stand only once. Entries after “also recorded” stand apart in the source; their conditions may differ. Blank lines part the entries; values can stand above or below the compound they belong to.
Tests used:
[1] = tested on: A2780 human ovarian carcinoma cells; test: SRB proliferation assay (48 h) on A2780 cells; format: cell-based; details: for cytostatic activity in long-term SRB assay (in words): A2780 cells, 100–0.0017 µM; for A2780 Hill Slope / IC50: SRB, nonlinear regression, N/A = could not be calculated/had no effect
Description: (§1) Cells were cultured under standard cell culture conditions, 37 °C, 5% CO2, humidified atmosphere. A2780 cells were cultured in RMPI 1640 medium supplemented with 10% fetal calf serum, 2 mM glutamine, and 1% penicillin–streptomycin (Sigma-Aldrich). ID8 cells were cultured in high-glucose DMEM (4.5 g/L glucose) supplemented with 4% fetal calf serum, 2 mM glutamine, 1% penicillin–streptomycin (Sigma-Aldrich), and 1% ITS supplement (Sigma-Aldrich I3146). U251 cells were maintained in MEM (Sigma-Aldrich), 10% fetal bovine serum (Sigma-Aldrich), 1% penicillin/streptomycin (Invitrogene), and 2 mM glutamine. MCF7 cells were maintained in MEM (Sigma-Aldrich), 10% fetal bovine serum (Sigma-Aldrich), 1% penicillin/streptomycin (Invitrogen, Waltham, MA, USA), and 2 mM glutamine. Capan2 cells were maintained in MEM (Sigma-Aldrich), 10% fetal bovine serum (Sigma-Aldrich), 1% penicillin/streptomycin (Invitrogen), and 2 mM glutamine. Human primary dermal fibroblasts were cultured in low-glucose DMEM (1 g/L glucose) supplemented with 20% fetal calf serum, 2 mM glutamine, and 1% penicillin–streptomycin (Sigma-Aldrich).
(§2) The SRB accumulation assay assesses protein content in a sample, and it was used to assess cell proliferation. The SRB accumulation assay was performed similarly to [68]. Cells were seeded in 96-well plates. The next day, cells were treated with the compounds for 48 h in the concentrations indicated in a cell incubator. At the end of treatment, cells were fixed with 10% trichloroacetic acid (TCA). Fixed cells were stained with SRB (0.4% m/v dissolved in 1% acetic acid) for 60 min. Fixed cells were washed in 1% acetic acid three times; acetic acid was removed, and cells were left to dry. Protein-bound SRB was released by adding 100 µL of 10 mM Tris base. Plates were measured in a plate photometer (Thermo Scientific Multiscan GO spectrophotometer, Waltham, MA, USA) at 540 nm. On each plate, wells were designed to contain untreated cells. In calculations, the readings for these wells were considered as 1, and all readings were expressed relative to these values.
(§3) Statistical analysis was performed using Graphpad Prism version 8.0.1. Values were tested for normal distribution using the D’Agostino and Pearson normality test. When necessary, values were log-normalized or were normalized using the Box–Cox normalization method, as indicated in the figure captions. Nonlinear regression was performed using the built-in “[Inhibitor] vs. response—variable slope (four parameters), least square fit” utility of Graphpad that yielded IC50 and Hill slope values.

[2] = tested on: human primary skin fibroblasts; test: SRB proliferation assay (48 h) on primary fibroblasts; format: cell-based
Description: as §1, §2, §3

ID8 cells = test: SRB proliferation assay (48 h) on ID8 cells; format: cell-based; details: for ID8 Hill Slope / IC50: SRB, nonlinear regression, N/A = could not be calculated/had no effect; for cytostatic activity in long-term SRB assay (in words): ID8 cells
Description: as §1, §2, §3

[3] = tested on: A2780 human ovarian carcinoma cells; test: MTT reduction assay (4 h, rapid toxicity) on A2780 cells; format: cell-based
Description: as §1
The MTT reduction assay assesses the activity of mitochondrial complex I, and it was used to assess rapid toxicity. The MTT reduction assay was performed similarly to [67]. Cells were seeded in 96-well plates. The next day, cells were treated with the compounds for 4 h in the concentrations indicated in a cell incubator. At the end of treatment, MTT was added in 0.5 mg/mL final concentration, and cells were incubated at 37 °C in a cell incubator. Then, culture media was removed, the reduced MTT dye was resolved in dimethyl sulfoxide (DMSO), and plates were measured in a plate photometer (Thermo Scientific Multiscan GO spectrophotometer, Waltham, MA, USA) at 540 nm. On each plate, wells were designed to contain untreated/vehicle-treated cells. In calculations, the readings for these wells were considered as 1, and all readings were expressed relative to these values.

A2780 cells = test: SRB assay on A2780 cells with or without 3 µM rucaparib; format: cell-based, human; details: 48 h, 3 µM
Description: as §2, §3

[4] = SRB, nonlinear regression, N/A = could not be calculated/had no effect

SMILES: CC(=O)OCC1OC(c2n[n+]3c(o2)-c2cccc[n+]2[Ru-]3[Cl])C(OC(C)=O)C(OC(C)=O)C1OC(C)=O.Cc1ccc(C(C)C)cc1.F[P-](F)(F)(F)(F)F (mixture of isomers) [Ru-5]
cytostatic activity in long-term SRB assay (in words) [1]: abrogated the inhibitory activity

SMILES: Cc1ccc(C(C)C)cc1.F[P-](F)(F)(F)(F)F.OCC1OC(c2nnc(-c3ccccn3)o2)C(O)C(O)C1O.[Cl][Ru+] (mixture of isomers) [Ru-10]
cytostatic activity in long-term SRB assay (in words) [1]: abrogated the inhibitory activity

SMILES: N.N.O=C([O-])C1(C(=O)[O-])CCC1.[Pt+2] [Carboplatin, carboplatin, reference compound]
A2780 Hill Slope [1]: 1.02 | IC50 [1]: 28 µM | effect in long-term SRB assay (in words) ([2]; primary human fibroblasts): no effect | ID8 Hill Slope (ID8 cells): 0.62

SMILES: N.N.[Cl][Pt][Cl] [Cisplatin, cisplatin, reference compound]
A2780 Hill Slope [1]: 1.20 | IC50 [1]: 1.21 µM | Fibroblast Hill Slope [2, 4]: 1.53 | IC50 ([2]; SRB, nonlinear regression, N/A = could not be calculated/had no effect, read-out: Fibroblast IC50): 11.9 µM | effect in SRB assay above 10 µM ([2]; primary human fibroblasts, above 10 µM): cytostatic | IC50 (ID8 cells): 10.8 µM | ID8 Hill Slope (ID8 cells): 0.99

SMILES: O=C(OC[C@H]1O[C@@H](n2cc(-c3ccccn3)nn2)[C@H](OC(=O)c2ccccc2)[C@@H](OC(=O)c2ccccc2)[C@@H]1OC(=O)c1ccccc1)c1ccccc1 [Complex L-2a, 1-(2′,3′,4′,6′-Tetra-O-benzoyl-β-D-glucopyranosyl)-4-(pyridin-2-yl)-1,2,3-triazole]
effect in short-term MTT assay, rapid toxicity (in words) [3]: no biological activity | cytostatic activity in long-term SRB assay (in words) [1]: no biological activity; also recorded: none of the corresponding ligands (L-2a, L-4, L-6, and L-8) had cytostatic properties | effect in long-term SRB assay (in words) ([2]; primary human fibroblasts): no effect | cytostatic activity in long-term SRB assay (in words) (ID8 cells): none of the corresponding ligands (L-2a, L-4, L-6, and L-8) had cytostatic properties

SMILES: O=C(OC[C@H]1O[C@@H](c2nnc(-c3ccccn3)o2)[C@H](OC(=O)c2ccccc2)[C@@H](OC(=O)c2ccccc2)[C@@H]1OC(=O)c1ccccc1)c1ccccc1 [Complex L-4, 2-(2′,3′,4′,6′-Tetra-O-benzoyl-β-D-glucopyranosyl)-5-(pyridin-2-yl)-1,3,4-oxadiazole]
effect in short-term MTT assay, rapid toxicity (in words) [3]: no biological activity | cytostatic activity in long-term SRB assay (in words) [1]: no biological activity; also recorded: none of the corresponding ligands (L-2a, L-4, L-6, and L-8) had cytostatic properties | effect in long-term SRB assay (in words) ([2]; primary human fibroblasts): no effect | cytostatic activity in long-term SRB assay (in words) (ID8 cells): none of the corresponding ligands (L-2a, L-4, L-6, and L-8) had cytostatic properties

SMILES: O=C(O[C@@H]1[C@@H](OC(=O)c2ccccc2)[C@H](c2nnc(-c3ccccn3)o2)OC[C@H]1OC(=O)c1ccccc1)c1ccccc1 [Complex L-6, 2-(2′,3′,4′-Tri-O-benzoyl-β-D-xylopyranosyl)-5-(pyridin-2-yl)-1,3,4-oxadiazole]
effect in short-term MTT assay, rapid toxicity (in words) [3]: no biological activity | cytostatic activity in long-term SRB assay (in words) [1]: no biological activity; also recorded: none of the corresponding ligands (L-2a, L-4, L-6, and L-8) had cytostatic properties | effect in long-term SRB assay (in words) ([2]; primary human fibroblasts): no effect | cytostatic activity in long-term SRB assay (in words) (ID8 cells): none of the corresponding ligands (L-2a, L-4, L-6, and L-8) had cytostatic properties

SMILES: O=C(OC[C@H]1O[C@@H](c2nnc(-c3ccccn3)o2)[C@H](OC(=O)c2ccccc2)[C@@H](OC(=O)c2ccccc2)[C@H]1OC(=O)c1ccccc1)c1ccccc1 [Complex L-8, 2-(2′,3′,4′,6′-Tetra-O-benzoyl-β-D-galactopyranosyl)-5-(pyridin-2-yl)-1,3,4-oxadiazole]
effect in short-term MTT assay, rapid toxicity (in words) [3]: no biological activity | cytostatic activity in long-term SRB assay (in words) [1]: no biological activity; also recorded: none of the corresponding ligands (L-2a, L-4, L-6, and L-8) had cytostatic properties | effect in long-term SRB assay (in words) ([2]; primary human fibroblasts): no effect | cytostatic activity in long-term SRB assay (in words) (ID8 cells): none of the corresponding ligands (L-2a, L-4, L-6, and L-8) had cytostatic properties

SMILES: c1ccc(-n2cc(-c3ccccn3)nn2)cc1 [Complex L-13, 1-phenyl-4-(pyridine-2-yl)-1,2,3-triazole]
cytostatic activity in long-term SRB assay (in words) [1]: Neither of the free ligands, L-13 or L-14, had cytostatic activity

SMILES: c1ccc(-c2nnc(-c3ccccn3)o2)cc1 [Complex L-14, 2-phenyl-5-(pyridine-2-yl)-1,3,4-oxadiazole]
cytostatic activity in long-term SRB assay (in words) [1]: Neither of the free ligands, L-13 or L-14, had cytostatic activity

SMILES: O=C1[O][Pt]2([NH][C@@H]3CCCC[C@H]3[NH]2)[O]C1=O [Oxaliplatin, oxaliplatin, reference compound]
A2780 Hill Slope [1]: 1.27 | IC50 [1]: 0.12 µM | Fibroblast Hill Slope [2, 4]: 0.37 | effect in long-term SRB assay (in words) ([2]; primary human fibroblasts): no effect | IC50 (ID8 cells): 4.59 µM | ID8 Hill Slope (ID8 cells): 1.58

IC50 [1]: 12 µM
SMILES: Cc1ccc(C(C)C)cc1.F[P-](F)(F)(F)(F)F.[Cl][Ru+].c1ccc(-n2cc(-c3ccccn3)nn2)cc1 [Ru-13]
cytostatic activity in long-term SRB assay (in words) [1]: lowered the cytostatic capacity | A2780 Hill Slope [1]: 1.5 and 1.57

SMILES: Cc1ccc(C(C)C)cc1.F[P-](F)(F)(F)(F)F.[Cl][Ru+].c1ccc(-c2nnc(-c3ccccn3)o2)cc1 [Ru-14]
cytostatic activity in long-term SRB assay (in words) [1]: no cytostatic activity; also recorded: fully abrogated it | A2780 Hill Slope [1]: 0.77

SMILES: CNCc1ccc(-c2[nH]c3cc(F)cc4c3c2CCNC4=O)cc1 [Rucaparib, rucaparib, reference compound]
cell proliferation (in words) (A2780 cells): reduced cell proliferation

Reference: article PMC8508960, “Ruthenium Half-Sandwich Type Complexes with Bidentate Monosaccharide Ligands Show Antineoplastic Activity in Ovarian Cancer Cell Models through Reactive Oxygen Species Production” (International Journal of Molecular Sciences, 2021)
